Source: ChEMBL document CHEMBL5696443 (Clin Cancer Res, 2016)
pIC50: −log10 of the molar value. Calls of active or inactive are those of the source.

Key:
[1] = biological target: SRSF protein kinase 1 (Homo sapiens) (UniProt Q96SB4); assay: Inhibition of human SRPK1 at 1 uM using GRSRSRSRSR as substrate in presence of [gamma33P]-ATP by HotSpot assay relative to control
[2] = biological target: Eukaryotic elongation factor 2 kinase (Homo sapiens) (UniProt O00418); assay: Inhibition of human EEF2K at 1 uM using RKKFGESEKTKTKEFL as substrate in presence of [gamma33P]-ATP by HotSpot assay relative to control
[3] = tested on: EML4-ALK (Homo sapiens), Q9UM73+Q9HC35 [C1156Y]; conditions: BaF3, dose 500.0 nmol/L, time 3-5 weeks
[4] = biological target: Dual specificity tyrosine-phosphorylation-regulated kinase 3 (Homo sapiens) (UniProt O43781); assay: Inhibition of human DYRK3 at 1 uM using RRRFRPASPLRGPPK as substrate in presence of [gamma33P]-ATP by HotSpot assay relative to control
[5] = biological target: Serine/threonine-protein kinase Sgk2 (Homo sapiens) (UniProt Q9HBY8); assay: Inhibition of human SGK2 at 1 uM using KGSGSGRPRTSSFAEG as substrate in presence of [gamma33P]-ATP by HotSpot assay relative to control
[6] = biological target: Serine/threonine-protein kinase mTOR (Homo sapiens) (UniProt P42345); assay: Inhibition of human MTOR at 1 uM using 4EBP1 as substrate in presence of [gamma33P]-ATP by HotSpot assay relative to control
[7] = Average plasma concentration in CB-17/SCID mouse at 50 mg/kg administered once a day for 4 days by LC-MS/MS analysis; format: ADME, organism-based; conditions: in vivo, 96 h, time 4 day
[8] = biological target: Dual specificity tyrosine-phosphorylation-regulated kinase 1B (Homo sapiens) (UniProt Q9Y463); assay: Inhibition of human DYRK1B at 1 uM using RRRFRPASPLRGPPK as substrate in presence of [gamma33P]-ATP by HotSpot assay relative to control
[9] = biological target: Interleukin-1 receptor-associated kinase 1 (Homo sapiens) (UniProt P51617); assay: Inhibition of human IRAK1 at 1 uM using MBP as substrate in presence of [gamma33P]-ATP by HotSpot assay relative to control
Chain of Interleukin-1 receptor-associated kinase 1 (Homo sapiens) (P51617 whole entry, looked up): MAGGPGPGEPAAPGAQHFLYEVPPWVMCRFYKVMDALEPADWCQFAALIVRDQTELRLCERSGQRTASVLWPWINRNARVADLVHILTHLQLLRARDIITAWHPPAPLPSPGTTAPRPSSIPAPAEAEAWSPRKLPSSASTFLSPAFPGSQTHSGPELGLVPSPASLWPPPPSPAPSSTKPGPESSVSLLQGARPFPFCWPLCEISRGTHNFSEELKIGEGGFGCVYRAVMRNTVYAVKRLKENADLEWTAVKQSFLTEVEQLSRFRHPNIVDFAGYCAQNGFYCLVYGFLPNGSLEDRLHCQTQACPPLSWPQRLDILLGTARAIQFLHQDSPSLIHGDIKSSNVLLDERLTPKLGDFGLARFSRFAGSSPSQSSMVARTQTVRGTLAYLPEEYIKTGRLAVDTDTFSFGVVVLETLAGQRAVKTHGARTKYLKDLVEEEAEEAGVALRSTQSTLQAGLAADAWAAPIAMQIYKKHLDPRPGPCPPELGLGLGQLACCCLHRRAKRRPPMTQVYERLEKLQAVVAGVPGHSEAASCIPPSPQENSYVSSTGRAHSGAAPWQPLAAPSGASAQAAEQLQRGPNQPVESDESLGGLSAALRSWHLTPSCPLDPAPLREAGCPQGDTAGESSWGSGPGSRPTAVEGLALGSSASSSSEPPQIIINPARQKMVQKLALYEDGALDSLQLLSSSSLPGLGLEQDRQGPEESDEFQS

[10] = biological target: Macrophage-stimulating protein receptor (Homo sapiens) (UniProt Q04912); assay: Inhibition of human MST1R at 1 uM using KKSRGDYMTMQIG as substrate in presence of [gamma33P]-ATP by HotSpot assay relative to control
Chain of Macrophage-stimulating protein receptor (Homo sapiens) (Q04912 25-304 limits assumed): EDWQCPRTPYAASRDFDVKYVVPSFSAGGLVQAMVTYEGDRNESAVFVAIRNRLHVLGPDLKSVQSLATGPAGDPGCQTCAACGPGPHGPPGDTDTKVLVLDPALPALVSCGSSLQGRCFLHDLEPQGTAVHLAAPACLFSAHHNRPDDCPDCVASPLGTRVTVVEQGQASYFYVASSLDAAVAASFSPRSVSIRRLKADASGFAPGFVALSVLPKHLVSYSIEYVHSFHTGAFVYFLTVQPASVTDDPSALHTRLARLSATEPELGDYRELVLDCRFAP
Chain of Macrophage-stimulating protein receptor (Homo sapiens) (Q04912 310-1400 limits assumed): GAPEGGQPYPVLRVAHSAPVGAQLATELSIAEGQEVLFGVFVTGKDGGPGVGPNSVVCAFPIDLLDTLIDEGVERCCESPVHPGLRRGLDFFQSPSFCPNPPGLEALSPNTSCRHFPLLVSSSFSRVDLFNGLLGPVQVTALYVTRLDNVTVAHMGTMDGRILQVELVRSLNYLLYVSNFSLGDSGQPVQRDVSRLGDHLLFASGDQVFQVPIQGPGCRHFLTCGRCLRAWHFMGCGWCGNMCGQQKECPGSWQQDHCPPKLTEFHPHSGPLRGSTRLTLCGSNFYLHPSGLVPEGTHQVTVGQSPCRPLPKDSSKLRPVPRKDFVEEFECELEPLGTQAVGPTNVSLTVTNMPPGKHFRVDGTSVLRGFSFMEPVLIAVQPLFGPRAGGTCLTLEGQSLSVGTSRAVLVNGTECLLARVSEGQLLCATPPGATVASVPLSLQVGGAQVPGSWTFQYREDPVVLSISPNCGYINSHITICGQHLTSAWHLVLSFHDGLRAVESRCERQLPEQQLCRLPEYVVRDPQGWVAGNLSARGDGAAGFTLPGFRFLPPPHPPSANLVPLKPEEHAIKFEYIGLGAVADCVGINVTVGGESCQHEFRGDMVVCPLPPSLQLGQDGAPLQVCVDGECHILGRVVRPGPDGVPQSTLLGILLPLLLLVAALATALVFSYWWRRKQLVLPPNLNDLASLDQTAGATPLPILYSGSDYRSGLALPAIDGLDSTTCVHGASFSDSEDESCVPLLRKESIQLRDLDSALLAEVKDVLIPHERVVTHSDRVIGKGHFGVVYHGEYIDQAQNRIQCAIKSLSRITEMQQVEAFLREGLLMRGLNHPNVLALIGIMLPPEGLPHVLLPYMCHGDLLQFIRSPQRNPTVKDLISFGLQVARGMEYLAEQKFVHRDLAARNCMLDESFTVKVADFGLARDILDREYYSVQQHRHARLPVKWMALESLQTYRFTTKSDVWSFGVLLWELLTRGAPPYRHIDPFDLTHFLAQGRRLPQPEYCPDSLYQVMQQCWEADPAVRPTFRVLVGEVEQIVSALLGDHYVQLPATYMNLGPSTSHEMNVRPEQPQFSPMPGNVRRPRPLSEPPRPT

[11] = biological target: Serine/threonine-protein kinase 24 (Homo sapiens) (UniProt Q9Y6E0); assay: Inhibition of human STK24 at 1 uM using MBP as substrate in presence of [gamma33P]-ATP by HotSpot assay relative to control
Chain of Serine/threonine-protein kinase 24 (Homo sapiens) (Q9Y6E0 whole entry, looked up): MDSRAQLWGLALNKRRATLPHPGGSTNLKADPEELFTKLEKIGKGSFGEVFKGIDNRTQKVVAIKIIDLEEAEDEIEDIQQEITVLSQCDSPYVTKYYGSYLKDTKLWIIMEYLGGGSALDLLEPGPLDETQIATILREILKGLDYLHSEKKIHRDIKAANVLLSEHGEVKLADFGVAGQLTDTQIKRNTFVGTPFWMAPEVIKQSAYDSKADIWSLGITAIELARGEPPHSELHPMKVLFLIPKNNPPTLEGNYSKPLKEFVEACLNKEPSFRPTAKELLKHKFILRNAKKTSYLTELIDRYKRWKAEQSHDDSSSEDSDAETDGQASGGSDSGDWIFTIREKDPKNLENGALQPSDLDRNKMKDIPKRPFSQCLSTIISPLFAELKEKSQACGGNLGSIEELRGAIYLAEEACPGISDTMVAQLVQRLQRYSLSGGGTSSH

[12] = biological target: CDK3/Cyclin E (Homo sapiens) (UniProt P24864+Q00526); assay: Inhibition of human CDK3/CyclinE at 1 uM using RB protein as substrate in presence of [gamma33P]-ATP by HotSpot assay relative to control; format: protein-complex assay
[13] = biological target: Serine/threonine-protein kinase D1 (Homo sapiens, UniProt Q15139); assay: Inhibition of human PRKD1 using KKLNRTLSVA as substrate in presence of [gamma33P]-ATP by HotSpot assay
[14] = biological target: Serine/threonine-protein kinase Nek11 (Homo sapiens) (UniProt Q8NG66); assay: Inhibition of human NEK11 at 1 uM using MBP as substrate in presence of [gamma33P]-ATP by HotSpot assay relative to control
Chain of Serine/threonine-protein kinase Nek11 (Homo sapiens) (Q8NG66 whole entry): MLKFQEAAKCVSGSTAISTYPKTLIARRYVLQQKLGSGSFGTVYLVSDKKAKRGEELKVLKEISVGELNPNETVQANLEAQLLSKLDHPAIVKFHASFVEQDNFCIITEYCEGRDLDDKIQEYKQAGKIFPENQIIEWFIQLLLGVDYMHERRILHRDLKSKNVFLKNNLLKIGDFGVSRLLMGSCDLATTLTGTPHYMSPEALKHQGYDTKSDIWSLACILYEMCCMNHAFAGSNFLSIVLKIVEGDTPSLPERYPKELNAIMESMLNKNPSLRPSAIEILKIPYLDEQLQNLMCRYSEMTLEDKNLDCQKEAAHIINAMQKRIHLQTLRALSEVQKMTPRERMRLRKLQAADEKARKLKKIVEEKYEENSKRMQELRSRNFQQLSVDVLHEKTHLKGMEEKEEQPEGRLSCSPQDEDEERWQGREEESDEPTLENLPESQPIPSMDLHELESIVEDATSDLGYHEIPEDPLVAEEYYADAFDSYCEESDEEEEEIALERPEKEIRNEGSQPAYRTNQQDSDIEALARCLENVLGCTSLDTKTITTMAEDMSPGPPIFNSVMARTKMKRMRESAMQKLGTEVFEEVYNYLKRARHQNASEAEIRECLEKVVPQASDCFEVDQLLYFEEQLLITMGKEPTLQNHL

NCI-H2228 = assay: Antitumor activity against ALK positive human NCI-H2228 cells xenografted in SCID beige mouse assessed as inhibition of tumor growth administered orally once daily for 21 days; format: functional, cell-based; conditions: dose 10-50 mg/kg, route po, time 21.0 day
[15] = biological target: MAP kinase-activated protein kinase 3 (Homo sapiens) (UniProt Q16644); assay: Inhibition of human MAPKAPK3 at 1 uM using KKLNRTLSVA as substrate in presence of [gamma33P]-ATP by HotSpot assay relative to control
Chain of MAP kinase-activated protein kinase 3 (Homo sapiens) (Q16644 whole entry, looked up): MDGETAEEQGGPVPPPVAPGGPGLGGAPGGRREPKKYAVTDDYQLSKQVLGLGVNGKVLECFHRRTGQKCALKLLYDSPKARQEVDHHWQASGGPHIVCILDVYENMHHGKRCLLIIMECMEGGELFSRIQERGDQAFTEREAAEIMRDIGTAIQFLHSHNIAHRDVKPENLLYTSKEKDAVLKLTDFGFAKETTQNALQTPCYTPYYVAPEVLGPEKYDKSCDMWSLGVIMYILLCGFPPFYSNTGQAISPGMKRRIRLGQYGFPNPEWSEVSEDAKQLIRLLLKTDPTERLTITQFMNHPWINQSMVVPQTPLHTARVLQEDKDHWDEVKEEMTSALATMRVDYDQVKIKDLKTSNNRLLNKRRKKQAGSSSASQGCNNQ

[16] = biological target: Tyrosine-protein kinase receptor TYRO3 (Homo sapiens) (UniProt Q06418); assay: Inhibition of human TYRO3 at 1 uM using poly (Glu, Tyr)4:1 as substrate in presence of [gamma33P]-ATP by HotSpot assay relative to control
[17] = biological target: Serine/threonine-protein kinase 26 (Homo sapiens) (UniProt Q9P289); assay: Inhibition of human STK26 at 1 uM using MBP as substrate in presence of [gamma33P]-ATP by HotSpot assay relative to control
Chain of Serine/threonine-protein kinase 26 (Homo sapiens) (Q9P289 2-416 limits assumed): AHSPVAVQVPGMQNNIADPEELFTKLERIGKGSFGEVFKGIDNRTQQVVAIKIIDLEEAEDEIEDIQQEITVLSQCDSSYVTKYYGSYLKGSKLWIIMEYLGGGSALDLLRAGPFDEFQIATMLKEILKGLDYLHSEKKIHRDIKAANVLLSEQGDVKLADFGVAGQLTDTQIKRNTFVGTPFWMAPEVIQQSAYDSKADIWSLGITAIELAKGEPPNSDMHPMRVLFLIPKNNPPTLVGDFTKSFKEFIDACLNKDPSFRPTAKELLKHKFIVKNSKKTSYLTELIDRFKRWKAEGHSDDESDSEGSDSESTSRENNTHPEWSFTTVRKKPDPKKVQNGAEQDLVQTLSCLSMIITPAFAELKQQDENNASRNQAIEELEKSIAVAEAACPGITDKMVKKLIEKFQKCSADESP

[18] = biological target: Ephrin type-A receptor 3 (Homo sapiens) (UniProt P29320); assay: Inhibition of human EPHA3 at 1 uM using poly (Glu, Tyr)4:1 as substrate in presence of [gamma33P]-ATP by HotSpot assay relative to control
[19] = Toxicity in SCID Beige mouse xenografted with ALK positive human KARPAS-299 cells assessed as effect on body weight at 10 to 50 mg/kg; format: organism-based; conditions: in vivo, dose 10-50 mg/kg
[20] = biological target: Homeodomain-interacting protein kinase 2 (Homo sapiens) (UniProt Q9H2X6); assay: Inhibition of human HIPK2 at 1 uM using MBP as substrate in presence of [gamma33P]-ATP by HotSpot assay relative to control
[21] = biological target: Mitogen-activated protein kinase 11 (Homo sapiens) (UniProt Q15759); assay: Inhibition of human MAPK11 at 1 uM using MBP as substrate in presence of [gamma33P]-ATP by HotSpot assay relative to control
[22] = biological target: Fibroblast growth factor receptor 2 (Homo sapiens, UniProt P21802); assay: Inhibition of human FGFR2 using poly (Glu, Tyr)4:1 as substrate in presence of [gamma33P]-ATP by HotSpot assay
Chain of Fibroblast growth factor receptor 2 (P21802 whole entry): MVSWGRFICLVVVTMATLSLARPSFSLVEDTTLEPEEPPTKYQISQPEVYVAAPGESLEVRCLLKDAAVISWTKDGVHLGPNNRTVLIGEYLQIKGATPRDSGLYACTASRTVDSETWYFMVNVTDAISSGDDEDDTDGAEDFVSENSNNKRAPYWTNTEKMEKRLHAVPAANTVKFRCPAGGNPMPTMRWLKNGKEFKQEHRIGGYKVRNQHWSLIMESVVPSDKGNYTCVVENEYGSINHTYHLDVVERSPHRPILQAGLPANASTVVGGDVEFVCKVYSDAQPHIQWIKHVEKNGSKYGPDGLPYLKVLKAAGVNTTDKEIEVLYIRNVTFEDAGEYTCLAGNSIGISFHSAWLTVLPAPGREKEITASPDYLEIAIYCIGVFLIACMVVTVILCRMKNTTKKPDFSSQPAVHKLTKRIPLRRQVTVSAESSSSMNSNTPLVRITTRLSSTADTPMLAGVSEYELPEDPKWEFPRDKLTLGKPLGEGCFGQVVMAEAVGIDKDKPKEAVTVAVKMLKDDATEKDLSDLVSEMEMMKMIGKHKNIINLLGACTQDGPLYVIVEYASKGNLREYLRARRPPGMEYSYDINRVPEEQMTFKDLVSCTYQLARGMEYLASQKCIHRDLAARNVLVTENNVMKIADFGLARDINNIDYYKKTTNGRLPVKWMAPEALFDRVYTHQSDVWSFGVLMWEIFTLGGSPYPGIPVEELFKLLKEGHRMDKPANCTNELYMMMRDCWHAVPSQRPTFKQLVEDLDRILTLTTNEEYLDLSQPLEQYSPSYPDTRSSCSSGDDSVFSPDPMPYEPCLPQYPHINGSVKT

[23] = biological target: MAP kinase-activated protein kinase 2 (Homo sapiens) (UniProt P49137); assay: Inhibition of human MAPKAPK2 at 1 uM using KKLNRTLSVA as substrate in presence of [gamma33P]-ATP by HotSpot assay relative to control
[24] = biological target: Serine/threonine-protein kinase pim-2 (Homo sapiens) (UniProt Q9P1W9); assay: Inhibition of human PIM2 at 1 uM using RSRHSSYPAGT as substrate in presence of [gamma33P]-ATP by HotSpot assay relative to control
[25] = biological target: Glycogen synthase kinase-3 alpha (Homo sapiens) (UniProt P49840); assay: Inhibition of human GSK3alpha at 1 uM using YRRAAVPPSPSLSRHSSPHQ(pS)EDEEE as substrate in presence of [gamma33P]-ATP by HotSpot assay relative to control
[26] = biological target: Homeodomain-interacting protein kinase 1 (Homo sapiens) (UniProt Q86Z02); assay: Inhibition of human HIPK1 at 1 uM using MBP as substrate in presence of [gamma33P]-ATP by HotSpot assay relative to control

COc1cc(N2CCC(N3CCN(C)CC3)CC2)ccc1Nc1ncc(Cl)c(Nc2ccccc2P(C)(C)=O)n1 [BRIGATINIB]
6.71: pIC50 [13]
6.64: pIC50 [22]
active: inhibition [3] | Activity (NCI-H2228) Dose-Dependent Effect
1870 nM: Cave [7]
< 90%: inhibition [1] | inhibition [2] | inhibition [4] | inhibition [5] | inhibition [6] | inhibition [8] | inhibition [9] | inhibition [10] | inhibition [11] | inhibition [12] | inhibition [14] | inhibition [15] | inhibition [16] | inhibition [17] | inhibition [18] | inhibition [20] | inhibition [21] | inhibition [23] | inhibition [24] | inhibition [25] | inhibition [26]
Non-Toxic: Activity [19]
